Laboratory results taken from PMC5599605, “Production and Characteristics of a Novel Xylose- and Alkali-tolerant GH 43 β-xylosidase from Penicillium oxalicum for Promoting Hemicellulose Degradation” (Scientific Reports, 2017).
One block for each molecule: values may come before it.

How the values were obtained:
Xyl43 [1] = biological target: T1, Xyl43 (Penicillium oxalicum, UniProt S7ZRR2); experiment: pNPX hydrolysis, residual activity; type: biochemical; conditions: pNPX 1 mg/ml, pH 7.0, 50 °C, 30 min; D or L not stated
T1 construct: gene PDE_06306; full-length, 348 residues, no native signal peptide; alpha-factor secretion signal, C-terminal His6 tag kept; Pichia pastoris X-33 (pPICZalphaA)

Xyl43 [2] = biological target: T1, Xyl43; experiment: pNPX hydrolysis, Dixon plot; type: biochemical; conditions: substrate pNPX 0.5 and 1 mg/ml, pH 7.0, 50 °C; end product; described as uncompetitive; Table 1 prints 28.9
[3] = substrate: O=[N+]([O-])c1ccc(O[C@@H]2OC[C@@H](O)[C@H](O)[C@H]2O)cc1; experiment: p-nitrophenol release, Lineweaver-Burk plot; type: biochemical, Penicillium oxalicum; conditions: pH 7.0, 50 °C, 5 min, no xylose

% of initial activity at 20 mM (Xyl43 [1]): 88.7%
Molecule: OC1OC[C@H](O)[C@H](O)[C@H]1O (stereo partly drawn) [arabinose]

Ki (Xyl43 [2]): 28.1 mM
Molecule: OC1OC[C@@H](O)[C@H](O)[C@H]1O (stereo partly drawn) [xylose]

B1: Xyl43 (Penicillium oxalicum 114-2) (protein)
chain: MSSSTSSAPRPDPKPLVTHLYTADPSAHVFNNKIYIYPSHDRETDIAFNDNGDQYDMTDYHVFSMDAIDGPVTDSGVVLSAADVPWVSKQMWAPDAATKNGKYYLFFPARDHEGIFRIGVAVSDSPMGPFAPEKSYIPGSYSIDPAVFVDTDDSAYLYFGGIWGGQLQCWERADGSASASADPQMNGLVFNKSKSGPQEPSGAGVPALCPRVGQLSDDMLTFVSPPRELQILAPETGEPLAADDHERRFFEAAWMHKYKGKYYFSYSTGDSHYLVYATGDSPWGPFTYQGRILEPVLGWTTHHSIVEFQGKWYLFYHDCELSKGVDHLRSVKVREIVYDEEDKIHLA
notes: full-length, 348 residues, no native signal peptide; alpha-factor secretion signal, C-terminal His6 tag kept; Pichia pastoris X-33 (pPICZalphaA)
Km [3]: 4.05 mM
